We go through 25 compounds from publication PMC6429159, “Evolution and Biological Evaluation of Matrinic Derivatives with Amantadine Fragments As New Anti-Influenza Virus Agents” (Molecules, 2019).

Series [1] concerns influenza virus A/hanfang/359/95 (H3N2). The experiment in a line: organism not typed. In kind it is cell-based. Particulars: MDCK cells; for IC50: 50% virus-inhibitory concentration after 40 hr at 37 °C, – = no anti-H3N2 activity at the maximum non-toxic concentration; for anti-H3N2 activity (in words): CPE assay.
A further series has as its system MDCK cells. The series can be described thus: Cytotoxicity assay. In kind it is cell-based. Particulars: 50% cytotoxic concentration, 48 hr. As to the method: A three-fold dilution compound was added to cell monolayer, and the cells continued to be cultivated for 48 hr, and then the CPE was recorded. The TC50 value of each compound was calculated by the methods of Reed & Muench.

Series [2] has as its system influenza virus A/Fort Monmouth/1/1947 (H1N1). The experiment in a line: organism not typed. In kind it is cell-based. Particulars: MDCK cells, CPE.
Series [3] in a line: Stability assay in whole blood. In kind it is in vitro ADME, SD rats. Particulars: in vitro, 37 °C. As to the method:
The results hinted that 9f owned a good PK stability profile in blood, and it was chosen for the next investigation.
The fresh bloods were collected on the day of experiment from SD rats, and pre-warmed in a water bath at 37 °C. A concentration of 10 mM tested compound or enalapril stock solutions were prepared in DMSO, and then diluted with 45% MeOH/H2O to achieve […] dosing solutions. […] At the end of incubation, for each sample, […] water and […] of stop solution (200 ng·mL^−1 tolbutamide plus 20 ng·mL^−1 buspirone in acetonitrile) were immediately added to precipitate the protein, and centrifuged at 4000 rpm for 20 min. An aliquot of supernatant ([…]) was then extracted, mixed with […] H2O, and then shaken at 800 rpm for about 10 min before being submitted for a liquid chromatography-tandem mass […] (LC-MS/MS) analysis. The experiment was repeated twice.
Figure 3 The stability assessments of key compounds 9f and 9j in whole blood. […]

Counter-ions that a name gives are not always drawn.

In the case of `O=C(CC1CC2CCC1C2)OCCCC[C@@H]1[C@H]2CCCN3CCC[C@@H](CN1S(=O)(=O)c1ccc(C(F)(F)F)cc1)[C@@H]23` (stereo partly shown) (as salt: hydrochloride) [Compound 9i, 12N-p-Trifluoromethlybenzenesulfonyl matrinic butyl-2’-norbornane acetate hydrochloride], the melting point was 223 °C (dec.).

For the compound `CCCC[C@@H]1[C@H]2CCCN3CCC[C@@H](CN1S(=O)(=O)c1ccccc1C(F)(F)F)[C@@H]23` [Compound 7c], in series [1], it took 50 ± 1.1 µM to reach half-maximal inhibition (IC50). In the series with MDCK cells, this compound gave a TC50 of 86.6 ± 3.8 µM.

The compound `CCCC[C@@H]1[C@H]2CCCN3CCC[C@@H](CN1S(=O)(=O)c1cccc(C(F)(F)F)c1)[C@@H]23` [Compound 7b] returned an IC50 in series [1] of 28.9 ± 2.4 µM. The compound also yielded a TC50 with MDCK cells of 86.6 ± 2.3 µM.

In the case of `CC(C)(C)C(=O)OCCCC[C@@H]1[C@H]2CCCN3CCC[C@@H](CN1S(=O)(=O)c1cccc(C(F)(F)F)c1)[C@@H]23` (as salt: hydrochloride) [Compound 9l, 12N-m-Trifluoromethlybenzenesulfonyl matrinicbutylpivalate hydrochloride], the melting point fell in the range of 162 to 164 °C.

In the case of `NC12CC3CC(CC(C3)C1)C2` [AH, amantadine hydrochloride, reference compound], the 50% inhibitory concentration (IC50) in series [1] stood at 3.25 ± 0.5 µM; in series [2], 2.73 µM.

Consider `CC(C)(C)C(=O)OCCCC[C@@H]1[C@H]2CCCN3CCC[C@@H](CN1S(=O)(=O)c1cccc(C(F)(F)F)c1)[C@@H]23` [Compound 9l, 12N-m-Trifluoromethlybenzenesulfonyl matrinicbutylpivalate hydrochloride], for which the IC50 in series [1] was 18.2 ± 3.2 µM. Further, the TC50 in the series with MDCK cells turned out to be 52.9 ± 8.0 µM.

Turning to `O=C(OCCCC[C@@H]1[C@H]2CCCN3CCC[C@@H](CN1S(=O)(=O)c1ccc(C(F)(F)F)cc1)[C@@H]23)C12CC3CC(CC1C3)C2` [Compound 9g, 12N-p-Trifluoromethlybenzenesulfonylmatrinicbutyl-3’-noradamantane-1’-carboxylate hydrochloride], the “anti-H3N2 activity (in words)” value in series [1] is given as “complete loss in activity”. Besides, the TC50 with MDCK cells came to 38.5 ± 6.6 µM.

Regarding `O=C(OCCCC[C@@H]1[C@H]2CCCN3CCC[C@@H](CN1S(=O)(=O)c1cccc(C(F)(F)F)c1)[C@@H]23)C12CC3CC(CC1C3)C2` [Compound 9h, 12N-m-Trifluoromethlybenzenesulfonylmatrinicbutyl-3’-noradamantane-1’-carboxylate hydrochloride], the “anti-H3N2 activity (in words)” value in series [1] is on record as “complete loss in activity”. For the same compound, in the series with MDCK cells, the TC50 was determined as 59.7 ± 0.0 µM.

In the case of `O=C(CC12CC3CC(CC(C3)C1)C2)OCCCC[C@@H]1[C@H]2CCCN3CCC[C@@H](CN1S(=O)(=O)c1cccc(C(F)(F)F)c1)[C@@H]23` [Compound 9e, 12N-m-Trifluoromethlybenzenesulfonyl matrinic butyl-1’-adamantaneacetatehydrochloride], inhibition in series [1] was half-maximal at 11.1 ± 1.5 µM (IC50). This compound had a TC50 in the series on MDCK cells of 63.4 ± 2.3 µM.

Compound `O=C(CC12CC3CC(CC(C3)C1)C2)OCCCC[C@@H]1[C@H]2CCCN3CCC[C@@H](CN1S(=O)(=O)c1cccc(C(F)(F)F)c1)[C@@H]23` (as salt: hydrochloride) [Compound 9e, 12N-m-Trifluoromethlybenzenesulfonyl matrinic butyl-1’-adamantaneacetatehydrochloride] returned a melting point of 155 to 156 °C.

With `O=C(OCCCC[C@@H]1[C@H]2CCCN3CCC[C@@H](CN1S(=O)(=O)c1ccc(C(F)(F)F)cc1)[C@@H]23)C12CC3CC(CC(Br)(C3)C1)C2` [Compound 9c, 12N-p-Trifluoromethlybenzenesulfonylmatrinicbutyl-3’-bromoadamantane-1’-carboxylate hydrochloride], the results for the IC50 in series [1] and in series [2] were 8.2 ± 2.07 µM and 27.5 ± 0.1 µM, respectively. The compound further yielded a TC50 in the series with MDCK cells of 73.6 ± 4.3 µM.

`O=C(CC1CC2CCC1C2)OCCCC[C@@H]1[C@H]2CCCN3CCC[C@@H](CN1S(=O)(=O)c1ccc(C(F)(F)F)cc1)[C@@H]23` (stereo partly shown) [Compound 9i, 12N-p-Trifluoromethlybenzenesulfonyl matrinic butyl-2’-norbornane acetate hydrochloride]: in series [1], the IC50 worked out at 25.7 ± 4.8 µM. Also, in the series with MDCK cells, the TC50 was 129.0 ± 20.9 µM.

In series [1], `O=C(OCCCC[C@@H]1[C@H]2CCCN3CCC[C@@H](CN1S(=O)(=O)c1ccc(C(F)(F)F)cc1)[C@@H]23)C12CC3CC(CC(C3)C1)C2` [Compound 9a, 12N-p-Trifluoromethlybenzenesulfonyl matrinic butyl adamantine-1’-carboxylate hydrochloride] had an IC50 of 16.5 ± 2.9 µM. In the series on MDCK cells, this compound registered a TC50 of 19.5 ± 2.8 µM.

Consider `O=C(CC12CC3CC(CC(C3)C1)C2)OCCCC[C@@H]1[C@H]2CCCN3CCC[C@@H](CN1S(=O)(=O)c1ccc(C(F)(F)F)cc1)[C@@H]23` (as salt: hydrochloride) [Compound 9b, 12N-p-Trifluoromethlybenzenesulfonyl matrinic butyl-1’-adamantaneacetatehydrochloride], for which the melting point was 227 °C (dec.).

`CC(C)(C)C(=O)OCCCC[C@@H]1[C@H]2CCCN3CCC[C@@H](CN1S(=O)(=O)c1ccc(C(F)(F)F)cc1)[C@@H]23` [Compound 9k, 12N-p-Trifluoromethlybenzenesulfonyl matrinic butyl pivalate hydrochloride] came in with a TC50 with MDCK cells of 94.3 ± 11.3 µM.

In series [1], `CCCC[C@@H]1[C@H]2CCCN3CCC[C@@H](CN1S(=O)(=O)c1ccc(C(F)(F)F)cc1)[C@@H]23` [Compound 7a] displayed an IC50 of 21.3 ± 1.9 µM. The TC50 in the series on MDCK cells was determined as 79.8 ± 4.7 µM.

Compound `O=C(OCCCC[C@@H]1[C@H]2CCCN3CCC[C@@H](CN1S(=O)(=O)c1cccc(C(F)(F)F)c1)[C@@H]23)C12CC3CC(CC(C3)C1)C2` (as salt: hydrochloride) [Compound 9d, 12N-m-Trifluoromethlybenzenesulfonyl matrinic butyl adamantine-1’-carboxylate hydrochloride] registered a melting point of 190 to 191 °C.

`O=C(OCCCC[C@@H]1[C@H]2CCCN3CCC[C@@H](CN1S(=O)(=O)c1ccc(C(F)(F)F)cc1)[C@@H]23)C12CC3CC(CC(Br)(C3)C1)C2` (as salt: hydrochloride) [Compound 9c, 12N-p-Trifluoromethlybenzenesulfonylmatrinicbutyl-3’-bromoadamantane-1’-carboxylate hydrochloride] yielded a melting point of 222 to 223 °C.

Take `O=C(OCCCC[C@@H]1[C@H]2CCCN3CCC[C@@H](CN1S(=O)(=O)c1cccc(C(F)(F)F)c1)[C@@H]23)C12CC3CC(CC1C3)C2` (as salt: hydrochloride) [Compound 9h, 12N-m-Trifluoromethlybenzenesulfonylmatrinicbutyl-3’-noradamantane-1’-carboxylate hydrochloride]: the melting point is 207 °C (dec.).

In the case of `CCOC(=O)[C@H](CCc1ccccc1)N[C@@H](C)C(=O)N1CCC[C@H]1C(=O)O` [enalapril, (S)-N-[1-(ethoxycarbonyl)-3-phenylpropyl]-Ala-Pro maleate, reference compound], in series [3], the “stability in whole blood (in words)” value is “hydrolyzed quickly”.

On to `O=C(OCCCC[C@@H]1[C@H]2CCCN3CCC[C@@H](CN1S(=O)(=O)c1cccc(C(F)(F)F)c1)[C@@H]23)C12CC3CC(CC(C3)C1)C2` [Compound 9d, 12N-m-Trifluoromethlybenzenesulfonyl matrinic butyl adamantine-1’-carboxylate hydrochloride], for which the results for the IC50 in series [1] and in series [2] were 5.9 ± 0.9 µM and 22.4 ± 1.3 µM, respectively. In the series with MDCK cells, this compound registered a TC50 of 54.9 ± 3.5 µM.

In the case of `O=C(OCCCC[C@@H]1[C@H]2CCCN3CCC[C@@H](CN1S(=O)(=O)c1ccc(C(F)(F)F)cc1)[C@@H]23)C12CC3CC(CC1C3)C2` (as salt: hydrochloride) [Compound 9g, 12N-p-Trifluoromethlybenzenesulfonylmatrinicbutyl-3’-noradamantane-1’-carboxylate hydrochloride], the melting point is 186 to 187 °C.

For the compound `O=C(OCCCC[C@@H]1[C@H]2CCCN3CCC[C@@H](CN1S(=O)(=O)c1ccc(C(F)(F)F)cc1)[C@@H]23)C12CC3CC(CC(C3)C1)C2` (as salt: hydrochloride) [Compound 9a, 12N-p-Trifluoromethlybenzenesulfonyl matrinic butyl adamantine-1’-carboxylate hydrochloride], the melting point was 231 °C (dec.).

For the compound `CC(C)(C)C(=O)OCCCC[C@@H]1[C@H]2CCCN3CCC[C@@H](CN1S(=O)(=O)c1ccc(C(F)(F)F)cc1)[C@@H]23` (as salt: hydrochloride) [Compound 9k, 12N-p-Trifluoromethlybenzenesulfonyl matrinic butyl pivalate hydrochloride], the melting point was in the range of 219 to 221 °C.

`O=C(CC12CC3CC(CC(C3)C1)C2)OCCCC[C@@H]1[C@H]2CCCN3CCC[C@@H](CN1S(=O)(=O)c1ccc(C(F)(F)F)cc1)[C@@H]23` [Compound 9b, 12N-p-Trifluoromethlybenzenesulfonyl matrinic butyl-1’-adamantaneacetatehydrochloride] yielded an IC50 in series [1] of 28.4 ± 2.3 µM. In the series on MDCK cells, the TC50 stood at 61.9 ± 1.9 µM.
